Activity calls are given as the source filed them.
Columns and labels:
[1] = target: G2/mitotic-specific cyclin-B1 (Homo sapiens, UniProt P14635); test: Counterscreen assay for inhibitors of Wee1 degradation: dose response cell-based assay to identify inhibitors of cyclin B degradation. [Related pubchem assays: 1410, 1321 ]; format: functional
Wee1-like protein kinase = Wee1-like protein kinase (Homo sapiens, UniProt P30291); test: Dose Response Cell-based Assay for Inhibitors of Wee1 Degradation. [Related pubchem assays: 1410, 1321 ]; format: functional
[2] = target: T1, Heat shock factor protein 1 (Mus musculus, UniProt P38532); test: enhancement of HSF1-driven luciferase signal – cell-based, NIH3T3, luminescence, dose retest, confirmation (AID 435004); format: functional;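 further: stress induced by proteasome inhibitor MG132 added 30 min after compound; luciferase reporter driven by HSF1 response element in NIH3T3 cells; actives raise luminescence as potentiators of the MG132 stress response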
T1 sequence (P38532 whole entry): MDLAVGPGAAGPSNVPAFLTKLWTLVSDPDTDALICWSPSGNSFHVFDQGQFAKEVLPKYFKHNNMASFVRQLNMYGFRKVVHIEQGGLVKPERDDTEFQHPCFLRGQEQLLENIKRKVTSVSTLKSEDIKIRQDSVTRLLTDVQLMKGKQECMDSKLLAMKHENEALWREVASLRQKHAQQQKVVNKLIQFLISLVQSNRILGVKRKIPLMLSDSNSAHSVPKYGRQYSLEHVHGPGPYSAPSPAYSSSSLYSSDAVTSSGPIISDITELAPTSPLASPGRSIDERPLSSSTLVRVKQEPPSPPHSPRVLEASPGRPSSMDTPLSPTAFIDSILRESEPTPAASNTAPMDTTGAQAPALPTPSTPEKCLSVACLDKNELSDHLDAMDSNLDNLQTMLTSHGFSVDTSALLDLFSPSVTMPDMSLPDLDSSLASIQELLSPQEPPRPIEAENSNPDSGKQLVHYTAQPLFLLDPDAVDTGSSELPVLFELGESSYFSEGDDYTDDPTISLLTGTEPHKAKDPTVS

[3] = target: FAD-linked sulfhydryl oxidase ALR (Homo sapiens, UniProt P55789); test: ALR-catalysed DTT oxidation blockers – biochemical, H2O2 detection, luminescence, cherry-pick, dose response (AID 493248)
Chain of FAD-linked sulfhydryl oxidase ALR (P55789 whole entry): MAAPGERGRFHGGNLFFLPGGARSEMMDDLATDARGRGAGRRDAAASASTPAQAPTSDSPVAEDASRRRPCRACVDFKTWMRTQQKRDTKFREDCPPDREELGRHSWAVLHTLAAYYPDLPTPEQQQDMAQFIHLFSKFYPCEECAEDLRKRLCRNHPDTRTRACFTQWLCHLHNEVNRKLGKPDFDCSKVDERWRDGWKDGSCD

[4] = target: Dual specificity protein phosphatase 3 (Homo sapiens, UniProt P51452); test: inhibition constants for human DUSP3 – biochemical, colorimetric, SAR follow-up (AID 2004)
Chain of Dual specificity protein phosphatase 3 (P51452 whole entry, the tested form may be a part): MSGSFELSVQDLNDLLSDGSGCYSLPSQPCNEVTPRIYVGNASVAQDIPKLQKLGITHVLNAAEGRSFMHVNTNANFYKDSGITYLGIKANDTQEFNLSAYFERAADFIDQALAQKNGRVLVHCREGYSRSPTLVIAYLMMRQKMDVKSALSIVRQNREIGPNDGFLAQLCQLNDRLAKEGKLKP

[5] = CCR5-tropic HIV-1 fusion blockers – cell-based, CCR5-tropic Env, dose response (AID 2279); format: functional
[6] = target: T2, Tyrosine-protein phosphatase non-receptor type 7 (Homo sapiens, UniProt P35236); format: functional
T2 sequence (P35236 whole entry): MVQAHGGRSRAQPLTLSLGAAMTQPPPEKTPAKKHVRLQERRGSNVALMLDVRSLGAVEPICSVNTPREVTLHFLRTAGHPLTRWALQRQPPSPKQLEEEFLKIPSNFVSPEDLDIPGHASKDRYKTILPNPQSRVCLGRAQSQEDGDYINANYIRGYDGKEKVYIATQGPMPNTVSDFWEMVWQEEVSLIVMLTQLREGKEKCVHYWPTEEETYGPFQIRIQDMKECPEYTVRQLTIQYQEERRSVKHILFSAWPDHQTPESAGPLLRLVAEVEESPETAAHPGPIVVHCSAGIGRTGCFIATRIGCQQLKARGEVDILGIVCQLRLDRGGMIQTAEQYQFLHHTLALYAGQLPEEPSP

[7] = target: Glyceraldehyde-3-phosphate dehydrogenase (Homo sapiens, UniProt P04406)
[8] = target: Heat shock cognate 71 kDa protein (Homo sapiens, UniProt P11142); test: In Vitro Hsc70 Dose Response Fluorescence Polarization Assay. [Related pubchem assays: 1072 ]
Chain of Heat shock cognate 71 kDa protein (P11142 whole entry): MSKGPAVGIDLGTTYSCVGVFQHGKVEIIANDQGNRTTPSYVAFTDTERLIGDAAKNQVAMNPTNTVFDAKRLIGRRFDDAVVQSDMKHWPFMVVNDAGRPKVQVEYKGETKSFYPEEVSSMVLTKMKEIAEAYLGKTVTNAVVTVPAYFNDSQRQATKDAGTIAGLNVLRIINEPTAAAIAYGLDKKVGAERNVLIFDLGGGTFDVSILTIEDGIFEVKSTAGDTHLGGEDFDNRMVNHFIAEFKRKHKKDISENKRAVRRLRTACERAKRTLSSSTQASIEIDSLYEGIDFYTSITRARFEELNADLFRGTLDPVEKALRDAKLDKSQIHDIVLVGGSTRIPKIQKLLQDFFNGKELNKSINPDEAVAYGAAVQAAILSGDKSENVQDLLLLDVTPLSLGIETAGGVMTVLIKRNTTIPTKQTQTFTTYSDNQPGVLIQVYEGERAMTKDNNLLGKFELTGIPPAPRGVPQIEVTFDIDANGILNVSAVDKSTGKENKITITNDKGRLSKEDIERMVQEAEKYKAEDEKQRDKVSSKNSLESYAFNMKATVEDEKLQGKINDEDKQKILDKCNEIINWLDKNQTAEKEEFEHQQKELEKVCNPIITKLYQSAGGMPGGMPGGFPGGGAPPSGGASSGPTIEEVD

[9] = target: Heat shock 70 kDa protein 1A (Homo sapiens, UniProt P0DMV8); test: inhibition of Hsp70 binding activity – biochemical, fluorescence polarization, SAR follow-up (AID 1072)
[10] = target: T3, Dual specificity protein phosphatase 6 (Rattus norvegicus, UniProt Q64346)
T3 sequence (Q64346 whole entry): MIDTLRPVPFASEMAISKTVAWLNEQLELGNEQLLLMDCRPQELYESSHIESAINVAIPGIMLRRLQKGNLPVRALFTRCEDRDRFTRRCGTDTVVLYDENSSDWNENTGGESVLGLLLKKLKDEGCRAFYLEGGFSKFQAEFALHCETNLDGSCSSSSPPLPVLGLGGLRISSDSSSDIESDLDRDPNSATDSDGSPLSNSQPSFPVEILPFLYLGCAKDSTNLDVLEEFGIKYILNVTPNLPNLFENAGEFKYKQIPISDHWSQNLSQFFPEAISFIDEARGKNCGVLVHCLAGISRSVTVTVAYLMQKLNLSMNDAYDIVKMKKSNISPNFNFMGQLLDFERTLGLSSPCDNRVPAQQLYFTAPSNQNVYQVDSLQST

[11] = target: T3, Dual specificity protein phosphatase 6; format: functional
[12] = target: Luciferin 4-monooxygenase (Photinus pyralis, UniProt P08659); test: Counter Screen for Luciferase-based Assay Positives. [Related pubchem assays: 620, 618, 411 ]
Chain of Luciferin 4-monooxygenase (P08659 whole entry): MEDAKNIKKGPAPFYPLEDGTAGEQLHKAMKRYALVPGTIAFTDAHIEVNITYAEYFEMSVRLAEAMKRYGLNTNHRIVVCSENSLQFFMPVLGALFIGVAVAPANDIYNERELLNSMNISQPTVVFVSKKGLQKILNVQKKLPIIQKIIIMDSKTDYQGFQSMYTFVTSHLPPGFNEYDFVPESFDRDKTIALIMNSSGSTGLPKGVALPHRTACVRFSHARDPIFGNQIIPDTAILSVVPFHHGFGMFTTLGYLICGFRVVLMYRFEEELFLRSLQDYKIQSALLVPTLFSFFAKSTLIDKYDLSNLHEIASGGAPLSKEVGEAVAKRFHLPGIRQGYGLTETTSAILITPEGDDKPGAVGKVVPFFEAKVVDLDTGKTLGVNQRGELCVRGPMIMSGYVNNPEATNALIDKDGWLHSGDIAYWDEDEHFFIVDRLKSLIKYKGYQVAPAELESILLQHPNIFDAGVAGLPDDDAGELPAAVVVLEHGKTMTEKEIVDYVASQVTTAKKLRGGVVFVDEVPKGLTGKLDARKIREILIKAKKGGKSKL

HT-1080 = test: HT1080 cell viability loss – fluorescence readout (AID 620); format: functional, cell-based; settings: Homo sapiens
cells = format: functional
[13] = target: Mothers against decapentaplegic homolog 3 (Homo sapiens, UniProt P84022); test: blockers of Smad3 complex formation in lysate – cell lysate, secondary confirmation, chemiluminescent ELISA, HEK293 lysate, dose response (AID 1058); format: functional
Chain of Mothers against decapentaplegic homolog 3 (P84022 whole entry): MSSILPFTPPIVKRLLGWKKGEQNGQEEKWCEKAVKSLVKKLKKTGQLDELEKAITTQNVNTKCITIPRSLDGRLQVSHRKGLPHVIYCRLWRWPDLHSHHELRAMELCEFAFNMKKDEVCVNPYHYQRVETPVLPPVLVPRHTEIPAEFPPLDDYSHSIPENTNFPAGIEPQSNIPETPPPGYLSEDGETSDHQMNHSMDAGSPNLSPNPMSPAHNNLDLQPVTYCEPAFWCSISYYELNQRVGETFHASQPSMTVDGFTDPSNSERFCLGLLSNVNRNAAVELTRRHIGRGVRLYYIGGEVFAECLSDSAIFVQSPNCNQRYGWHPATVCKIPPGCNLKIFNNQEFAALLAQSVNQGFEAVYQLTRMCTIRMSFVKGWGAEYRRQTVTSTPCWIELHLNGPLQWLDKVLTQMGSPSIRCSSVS

Cytochrome P450 2C9 = Cytochrome P450 2C9 (Homo sapiens, UniProt P11712); settings: Potency
Chain of Cytochrome P450 2C9 (P11712 whole entry): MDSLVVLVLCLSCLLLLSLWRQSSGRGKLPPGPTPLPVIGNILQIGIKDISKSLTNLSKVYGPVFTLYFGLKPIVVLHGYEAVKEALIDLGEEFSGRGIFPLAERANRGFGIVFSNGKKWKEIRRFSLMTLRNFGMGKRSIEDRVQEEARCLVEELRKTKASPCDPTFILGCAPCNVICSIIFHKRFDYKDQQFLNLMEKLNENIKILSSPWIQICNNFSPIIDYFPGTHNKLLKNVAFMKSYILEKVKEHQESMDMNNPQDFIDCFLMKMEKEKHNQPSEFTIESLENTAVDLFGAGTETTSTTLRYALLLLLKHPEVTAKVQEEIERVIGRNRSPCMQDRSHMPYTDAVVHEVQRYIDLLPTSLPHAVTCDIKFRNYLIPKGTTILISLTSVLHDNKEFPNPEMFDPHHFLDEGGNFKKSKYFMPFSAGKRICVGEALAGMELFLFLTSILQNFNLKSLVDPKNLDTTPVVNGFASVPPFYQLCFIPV

BJ [14] = test: BJ-TERT fibroblast viability loss – cell-based, RAS-independent, luminescence, dose response (AID 1933); format: functional; settings: Homo sapiens
[15] = Counterscreen for IDE inhibitors: Luminescence-based cell-based high throughput dose response assay to identify compounds that are cytotoxic to HEK cells. [Related pubchem assays: 434962 (Primary screen (IDE inhibitors in singlicate)), 449730 (Counterscreen (Cytotoxicity in triplicate)), 435028 (Confirmation (IDE inhibitors in triplicate)) …; format: functional; settings: HEK293
BJ [16] = test: cells; format: functional, cell-based; settings: Homo sapiens
[17] = target: T4, Kappa-type opioid receptor (Homo sapiens, UniProt P41145); format: functional
T4 sequence (P41145 whole entry): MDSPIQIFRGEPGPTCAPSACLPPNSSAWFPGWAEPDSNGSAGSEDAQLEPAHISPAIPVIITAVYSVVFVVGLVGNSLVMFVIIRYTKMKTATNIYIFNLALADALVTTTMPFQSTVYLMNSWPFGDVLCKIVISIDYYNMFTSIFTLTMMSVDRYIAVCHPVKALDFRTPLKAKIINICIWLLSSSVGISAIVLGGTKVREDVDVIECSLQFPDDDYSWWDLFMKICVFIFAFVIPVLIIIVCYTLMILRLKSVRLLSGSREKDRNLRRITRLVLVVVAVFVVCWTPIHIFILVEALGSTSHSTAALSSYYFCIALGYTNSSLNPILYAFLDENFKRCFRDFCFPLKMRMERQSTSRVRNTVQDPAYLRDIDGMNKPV

Insulin-degrading enzyme = target: T5, Insulin-degrading enzyme (Homo sapiens, UniProt P14735); test: Dose Response: Fluorescence polarization-based cell-based high throughput dose response assay for inhibitors of insulin-degrading enzyme (IDE). [Related pubchem assays: 434962 (Primary screen (IDE inhibitors in singlicate)), 449730 (Counterscreen (Cytotoxicity in triplicate)), 435028 (Confirmation (IDE inhibitors in triplicate)), 434984 (Summary …; format: functional
T5 sequence (P14735 whole entry): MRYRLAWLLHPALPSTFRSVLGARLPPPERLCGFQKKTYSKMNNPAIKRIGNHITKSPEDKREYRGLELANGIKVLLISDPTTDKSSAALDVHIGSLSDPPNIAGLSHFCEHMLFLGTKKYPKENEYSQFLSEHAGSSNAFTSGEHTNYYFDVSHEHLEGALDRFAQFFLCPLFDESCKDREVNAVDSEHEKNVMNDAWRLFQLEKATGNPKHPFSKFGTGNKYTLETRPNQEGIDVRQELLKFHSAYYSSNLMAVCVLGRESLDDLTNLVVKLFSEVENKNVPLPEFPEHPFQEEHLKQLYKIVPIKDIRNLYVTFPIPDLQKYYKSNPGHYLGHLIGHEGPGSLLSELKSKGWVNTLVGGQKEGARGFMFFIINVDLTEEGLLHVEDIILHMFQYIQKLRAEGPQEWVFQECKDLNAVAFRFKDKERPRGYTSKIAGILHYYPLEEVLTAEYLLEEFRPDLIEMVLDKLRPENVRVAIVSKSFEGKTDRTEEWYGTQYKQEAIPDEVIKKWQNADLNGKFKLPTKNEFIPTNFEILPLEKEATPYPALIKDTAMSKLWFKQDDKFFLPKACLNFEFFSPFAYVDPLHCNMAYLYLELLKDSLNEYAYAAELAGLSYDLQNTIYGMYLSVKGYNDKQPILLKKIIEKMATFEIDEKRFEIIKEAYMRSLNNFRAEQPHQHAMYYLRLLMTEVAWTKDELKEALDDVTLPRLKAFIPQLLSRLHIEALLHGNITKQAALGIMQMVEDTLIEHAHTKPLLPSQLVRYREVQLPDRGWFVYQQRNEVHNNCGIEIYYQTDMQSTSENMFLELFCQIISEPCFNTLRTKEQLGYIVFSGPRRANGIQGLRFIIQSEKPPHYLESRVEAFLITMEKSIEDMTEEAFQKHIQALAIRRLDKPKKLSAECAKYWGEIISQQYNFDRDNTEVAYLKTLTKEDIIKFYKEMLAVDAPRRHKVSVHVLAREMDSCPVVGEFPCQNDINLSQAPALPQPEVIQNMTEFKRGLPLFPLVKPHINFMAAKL

Beta-galactosidase = Beta-galactosidase (Escherichia coli, UniProt Q8VNN2); format: functional
Chain of Beta-galactosidase (Q8VNN2 whole entry): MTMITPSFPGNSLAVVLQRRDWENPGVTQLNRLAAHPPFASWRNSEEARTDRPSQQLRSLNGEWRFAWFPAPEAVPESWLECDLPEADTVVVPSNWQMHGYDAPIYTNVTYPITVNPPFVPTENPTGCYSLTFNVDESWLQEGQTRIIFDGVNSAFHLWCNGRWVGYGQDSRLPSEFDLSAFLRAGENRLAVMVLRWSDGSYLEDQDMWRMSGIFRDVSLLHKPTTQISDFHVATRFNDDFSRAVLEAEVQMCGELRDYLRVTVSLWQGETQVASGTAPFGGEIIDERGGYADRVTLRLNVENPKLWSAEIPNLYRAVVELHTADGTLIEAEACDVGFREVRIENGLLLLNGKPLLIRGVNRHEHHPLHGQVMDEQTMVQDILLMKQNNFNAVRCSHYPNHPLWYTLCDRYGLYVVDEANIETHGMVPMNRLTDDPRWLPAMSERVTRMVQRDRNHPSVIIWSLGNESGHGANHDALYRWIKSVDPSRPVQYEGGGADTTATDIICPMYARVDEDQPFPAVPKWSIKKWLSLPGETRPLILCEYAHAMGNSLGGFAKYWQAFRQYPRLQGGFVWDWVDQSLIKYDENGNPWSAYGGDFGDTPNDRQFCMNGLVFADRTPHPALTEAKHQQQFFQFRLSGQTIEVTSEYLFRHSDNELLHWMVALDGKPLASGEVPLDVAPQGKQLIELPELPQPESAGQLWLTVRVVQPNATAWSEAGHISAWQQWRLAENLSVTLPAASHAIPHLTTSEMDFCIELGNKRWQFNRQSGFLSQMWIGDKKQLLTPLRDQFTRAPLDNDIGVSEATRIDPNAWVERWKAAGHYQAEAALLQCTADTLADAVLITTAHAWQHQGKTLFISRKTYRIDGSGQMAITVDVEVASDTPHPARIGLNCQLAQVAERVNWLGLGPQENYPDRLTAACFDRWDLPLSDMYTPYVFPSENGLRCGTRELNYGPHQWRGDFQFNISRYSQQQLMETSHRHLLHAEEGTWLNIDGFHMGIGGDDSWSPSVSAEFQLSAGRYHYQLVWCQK

BJ [18] = test: BJ-TERT-LT-ST fibroblast viability loss – cell-based, RAS-independent, luminescence, dose response (AID 1935); format: functional; settings: Homo sapiens;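 further: BJ fibroblasts immortalized with TERT plus LT and ST oncogenes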
[19] = target: T4, Kappa-type opioid receptor; format: functional; remark: listed apart in the source
[20] = DRD fibroblast viability loss – cell-based, non-viral oncogenic, luminescence, dose response (AID 1934); format: functional; settings: Homo sapiens
[21] = target: Melanin-concentrating hormone receptor 1 (Homo sapiens, UniProt Q99705); test: Late-stage fluorescence-based counterscreen for antagonists of the G-protein coupled receptor 7 (GPR7): cell-based dose response assay to identify antagonists of the melanin-concentrating hormone receptor 1 (MCHR1). [Related pubchem assays (depositor defined):AID1861, AID1880, AID1952, AID2148, AID2251, AID2257, AID485339]; format: functional;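 further: stimulated with 30 nM MCH peptide agonist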
Chain of Melanin-concentrating hormone receptor 1 (Q99705 whole entry): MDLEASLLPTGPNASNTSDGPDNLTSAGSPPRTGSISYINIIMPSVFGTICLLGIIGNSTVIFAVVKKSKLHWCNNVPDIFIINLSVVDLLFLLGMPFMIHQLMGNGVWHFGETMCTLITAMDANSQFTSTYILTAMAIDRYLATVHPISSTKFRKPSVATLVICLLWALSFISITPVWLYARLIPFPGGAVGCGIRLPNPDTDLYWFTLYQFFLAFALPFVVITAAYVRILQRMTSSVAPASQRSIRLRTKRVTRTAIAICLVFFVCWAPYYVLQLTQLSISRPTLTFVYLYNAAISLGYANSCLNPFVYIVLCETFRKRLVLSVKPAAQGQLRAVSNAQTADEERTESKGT

[22] = target: T6, Neuropeptide Y receptor type 1 (Homo sapiens, UniProt P25929); format: functional;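 further: HEK293 cells with a CNG channel challenged with NPY then isoproterenol; potency as antagonist that reverses NPY suppression of cAMP signal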
T6 sequence (P25929 whole entry): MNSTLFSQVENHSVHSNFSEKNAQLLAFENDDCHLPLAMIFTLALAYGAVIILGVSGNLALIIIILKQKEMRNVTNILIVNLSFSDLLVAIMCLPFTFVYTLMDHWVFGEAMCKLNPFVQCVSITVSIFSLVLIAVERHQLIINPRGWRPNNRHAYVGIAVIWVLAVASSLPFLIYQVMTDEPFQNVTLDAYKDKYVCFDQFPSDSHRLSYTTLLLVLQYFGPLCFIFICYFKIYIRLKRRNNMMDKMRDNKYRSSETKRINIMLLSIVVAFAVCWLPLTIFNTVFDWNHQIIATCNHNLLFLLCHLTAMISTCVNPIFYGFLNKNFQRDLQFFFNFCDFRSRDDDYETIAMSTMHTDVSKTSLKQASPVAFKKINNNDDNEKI

[23] = target: T7, Neuropeptide Y receptor type 2 (Homo sapiens, UniProt P49146); format: functional, cell-based;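 further: HEK293 cells expressing the receptor and a CNG channel; stimulus was NPY near EC95 followed by isoproterenol to raise cAMP; antagonist potency measured as restoring cAMP signal that NPY suppresses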
T7 sequence (P49146 whole entry): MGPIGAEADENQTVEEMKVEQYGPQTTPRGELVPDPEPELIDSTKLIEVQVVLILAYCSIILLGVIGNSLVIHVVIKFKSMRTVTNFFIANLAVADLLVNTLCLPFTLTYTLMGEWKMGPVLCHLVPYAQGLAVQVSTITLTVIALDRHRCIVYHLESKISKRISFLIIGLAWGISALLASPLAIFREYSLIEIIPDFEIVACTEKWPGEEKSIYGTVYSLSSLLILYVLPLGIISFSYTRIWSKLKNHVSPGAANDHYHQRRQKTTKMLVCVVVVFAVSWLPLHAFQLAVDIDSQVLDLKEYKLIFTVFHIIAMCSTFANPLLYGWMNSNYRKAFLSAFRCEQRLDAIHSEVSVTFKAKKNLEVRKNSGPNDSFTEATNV

Chain of G2/mitotic-specific cyclin-B1 (P14635 whole entry): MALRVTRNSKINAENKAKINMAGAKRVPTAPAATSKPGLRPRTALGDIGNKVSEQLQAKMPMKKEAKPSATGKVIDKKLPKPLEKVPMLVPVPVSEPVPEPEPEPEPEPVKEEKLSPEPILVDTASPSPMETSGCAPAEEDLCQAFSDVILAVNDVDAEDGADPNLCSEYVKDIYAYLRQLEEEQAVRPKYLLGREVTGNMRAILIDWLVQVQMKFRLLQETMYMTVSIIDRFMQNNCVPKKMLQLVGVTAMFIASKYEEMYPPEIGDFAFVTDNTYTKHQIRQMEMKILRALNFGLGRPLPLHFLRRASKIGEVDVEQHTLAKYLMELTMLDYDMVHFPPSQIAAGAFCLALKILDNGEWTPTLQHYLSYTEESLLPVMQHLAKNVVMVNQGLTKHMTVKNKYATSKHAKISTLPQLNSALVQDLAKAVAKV

Cc1ccc2[nH]c(NCc3ccccc3)nc2c1
EC50 [1]: > 49.7 µM (not active)
EC50 (Wee1-like protein kinase): > 49.7 µM (not active)
EC50 [2]: > 260 µM (inactive)
AC50 [3]: 6.87 µM (active)

Cn1c(=O)c2c(nc(S)n2Cc2ccccc2Cl)n(C)c1=O
Ki [4]: 25.4 µM (inactive)

Cc1ccc(-c2nc(SCC(=O)Nc3ccccc3OC(F)F)c3c(C)c(C(=O)O)sc3n2)cc1
IC50 [5]: 18.8 µM (active)

Cc1cc(C)c2c(c1)C1C=CCC1C(C(=O)O)N2 (centres undefined)
IC50 [6]: 70.2 µM (active)
IC50 [7]: > 100 µM (not active)
IC50 [8]: > 100 µM (not active)
IC50 [9]: 24.7 µM (active)
IC50 [10]: > 100 µM (inactive)
IC50 [11]: > 100 µM (inactive)

Cc1ccc(C(=O)COC(=O)c2cccs2)cc1
EC50 [12]: 0.53 µM (active)
EC50 (HT-1080): > 50 µM (not active)
IC50 (cells): 24.3 µM (active)

COc1cc(C(c2cc3c(cc2O)OCO3)N2CCCC2)cc(OC)c1OC (centres undefined)
IC50 [13]: > 40 µM (not active)

CCOC(=O)OCC1OC(C#Cc2ccccc2)C=CC1OC(=O)OCC (centres undefined)
AC50 (Cytochrome P450 2C9): 0.0794 µM (inconclusive)

CCN1C(=O)/C(=C/C=C2/Sc3ccccc3N2CCO)SC1=S
EC50 (BJ [14]): 28.7 µM (active)
IC50 [15]: 12.1 µM (not active)
EC50 (BJ [16]): 30.4 µM (active)
IC50 [17]: 13.2 µM (active)
IC50 (Insulin-degrading enzyme): > 56 µM (not active)
EC50 (Beta-galactosidase): 16.7 µM (active)
EC50 (BJ [18]): > 150 µM (not active)
IC50 [19]: 27.6 µM
EC50 [20]: 50.2 µM (active)

COc1ccc(Oc2c(Cl)cnn(-c3cccc(C)c3C)c2=O)cc1
IC50 [21]: 12.5 µM (inactive)

OC[C@H]1O[C@@H](n2cnc3c(Nc4ccccc4)ncnc32)[C@H](O)[C@@H]1O [N6-PHENYLADENOSINE]
IC50 [22]: 7.83 µM (active)
IC50 [23]: 4.73 µM (active)
